According to patent US11528912B2, “Bacillus methylotrophicus strain DR-08 producing natural volatile compound and having antibacterial activity, and use thereof” (GLOBAL AGRO CO., LTD., priority 2016, dated 2022):
Counter-ions that a name gives are not always drawn.

Assays:
Format in all cases: cell-based
[1] = test system: Xanthomonas arboricola pv. pruni; experiment: microbe, parasite or virus in culture; settings: 48 h, read-out: Clear zone
[2] = test system: Acidovorax avenae subsp. cattleyae; experiment: 96-well microplate bioassay, MIC; parameters: key: —: Not active
Procedure: (§1) The butanol extract produced as in Example 3 was dissolved in methanol at a level of 5 mg/mL, and antibacterial activity thereof against various plant pathogens was examined.
(§2) Then, dilution with sterilized water was performed to reach 10^6 CFU/ml, and inoculation into a 96-well plate was performed.
(§3) For the butanol extract of the Bacillus sp. strain DR-08, the butanol extract of the strain DR-08 and streptomycin sulfate as a control agent were made to have the highest concentrations of 500·μg/mL and 100 μg/mL, respectively, in a TSB medium into which 14 various phytopathogenic bacteria including Gram-negative and Gram-positive bacteria had been inoculated. Then, starting from the next well, the concentrations were decreased by 2-fold using an octapipette. The butanol extract of the strain DR-08 was used by being sequentially diluted by 2-fold from 500 μg/mL at the highest down to 15.6 μg/mL, and streptomycin sulfate as a control agent was used by being sequentially diluted by 2-fold from 100 μg/mL at the highest down to 3.1 μg/mL. Standing culture was performed at optimal growth conditions, and then growth of the phytopathogenic bacteria was measured at an absorbance of 595 nm with a microplate reader. Then, a minimum growth inhibitory concentration (MIC) value was determined.

[3] = test system: Pectobacterium chrysanthemi; experiment: 96-well microplate bioassay, MIC; parameters: key: —: Not active
Procedure: as §1, §2, §3

Acidovorax konjaci = experiment: 96-well microplate bioassay, MIC; settings: Paracidovorax konjaci; read-out: Minimum inhibitory concentration (MIC)
Procedure: as §1, §2, §3

[4] = test system: Agrobacterium tumefaciens; experiment: 96-well microplate bioassay, MIC; settings: read-out: Minimum inhibitory concentration (MIC)
Procedure: as §1, §2, §3

[5] = test system: Pectobacterium carotovora subsp. carotovora; experiment: 96-well microplate bioassay, MIC; settings: read-out: Minimum inhibitory concentration (MIC)
Procedure: as §1, §2, §3

[6] = test system: Pseudomonas syringae pv. actinidiae; experiment: 96-well microplate bioassay, MIC; settings: read-out: Minimum inhibitory concentration (MIC)
Procedure: as §1, §2, §3

[7] = test system: Pseudomonas syringae pv. lachrymans; experiment: 96-well microplate bioassay, MIC; settings: read-out: Minimum inhibitory concentration (MIC)
Procedure: as §1, §2, §3

[8] = test system: Xanthomonas arboricola pv. pruni; experiment: 96-well microplate bioassay, MIC; settings: read-out: Minimum inhibitory concentration (MIC)
Procedure: as §1, §2, §3

Burkholderia glumae = experiment: microbe, parasite or virus in culture; settings: read-out: Minimum inhibitory concentration (MIC)
Ralstonia solanacearum = experiment: microbe, parasite or virus in culture; settings: read-out: Minimum inhibitory concentration (MIC)
[9] = test system: Xanthomonas axonopodis pv. citri; experiment: 96-well microplate bioassay, MIC; settings: read-out: Minimum inhibitory concentration (MIC)
[10] = test system: Xanthomonas euvesicatoria; experiment: microbe, parasite or virus in culture; settings: read-out: Minimum inhibitory concentration (MIC)
[11] = test system: Xanthomonas oryzae pv. oryzae; experiment: microbe, parasite or virus in culture; settings: read-out: Minimum inhibitory concentration (MIC)
[12] = test system: Clavibacter michiganensis subsp. michiganensis; experiment: 96-well microplate bioassay, MIC; settings: read-out: Minimum inhibitory concentration (MIC)

In the case of [H]/N=C(/N)N[C@H]1[C@H](O)[C@@H](O)[C@H](O[C@@H]2O[C@@H](C)[C@](O)(C=O)[C@H]2O[C@@H]2O[C@@H](CO)[C@H](O)[C@@H](O)[C@@H]2NC)[C@@H](N/C(N)=N\[H])[C@@H]1O [Streptomycin sulfate, streptomycin sulfate], the zone of inhibition at 200 ppm [1] is reported as 4 mm, the “Minimum inhibitory concentration (MIC)” value [2] is reported as “—” and the “Minimum inhibitory concentration (MIC)” value [3] is reported as “—”. For the same compound, the MIC (Acidovorax konjaci) was 6.25 µg/mL, the MIC [4] was 100 µg/mL and the MIC [5] was 12.5 µg/mL. The MIC [6] was 12.5 µg/mL, the MIC [7] was 50 µg/mL and the MIC [8] was 12.5 µg/mL. For the same compound, the MIC (Burkholderia glumae) was 12.5 µg/mL, the MIC (Ralstonia solanacearum) was 3.12 µg/mL and the MIC [9] was 6.25 µg/mL. It also gave an MIC [10] of 12.5 µg/mL, an MIC [11] of 3.12 µg/mL and an MIC [12] of 25 µg/mL.
